Reference: patent publication EP4273147A1, “SUBSTITUTED SPIROLACTAMS, SALTS THEREOF AND THEIR USE AS HERBICIDALLY ACTIVE SUBSTANCES” (Bayer Aktiengesellschaft, priority 2022, dated 2023)

Tests used:
ABUTH [1] = assay: Herbicidal pre-emergence action (Table A1); format: in vivo, Abutilon theophrasti; settings: application rate 320 g/ha; visual grading after ca. 3 weeks vs untreated controls (100% = plants have died off, 0% = as control plants)
In short: (§1)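 Seeds of monocot and dicot weeds were sown in pots of sandy loam and covered with soil. Each pot held a double sowing: one monocotyledonous plus one dicotyledonous species.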

ECHCG [2] = assay: Herbicidal pre-emergence action (Table A2); format: in vivo, Echinochloa crus-galli; settings: application rate 320 g/ha; visual grading after ca. 3 weeks
In short: as §1

LOLRI [3] = assay: Herbicidal pre-emergence action (Table A3); format: in vivo, Lolium rigidum; settings: application rate 320 g/ha; visual grading after ca. 3 weeks
In short: as §1

MATIN [4] = assay: Herbicidal pre-emergence action (Table A4); format: in vivo, Matricaria inodora; settings: application rate 320 g/ha; visual grading after ca. 3 weeks
In short: as §1

SETVI [5] = assay: Herbicidal pre-emergence action (Table A5); format: in vivo, Setaria viridis; settings: application rate 320 g/ha; visual grading after ca. 3 weeks
In short: as §1

STEME [6] = assay: Herbicidal pre-emergence action (Table A6); format: in vivo, Stellaria media; settings: application rate 320 g/ha; visual grading after ca. 3 weeks
In short: as §1

POAAN [7] = assay: Herbicidal pre-emergence action (Table A7); format: in vivo, Poa annua; settings: application rate 320 g/ha; visual grading after ca. 3 weeks
In short: as §1

AMARE [8] = assay: Herbicidal pre-emergence action (Table A8); format: in vivo, Amaranthus retroflexus; settings: application rate 1280 g/ha; visual grading after ca. 3 weeks vs untreated controls (100% = plants have died off, 0% = as control plants)
In short: as §1

ALOMY [9] = assay: Herbicidal pre-emergence action (Table A9); format: in vivo, Alopecurus myosuroides; settings: application rate 320 g/ha; visual grading after ca. 3 weeks
In short: as §1

KCHSC = assay: Herbicidal pre-emergence action (Table A10); format: in vivo, Kochia scoparia; settings: application rate 1280 g/ha; visual grading after ca. 3 weeks
In short: as §1

VERPE [10] = assay: Herbicidal pre-emergence action (Table A11); format: in vivo, Veronica persica; settings: application rate 320 g/ha; visual grading after ca. 3 weeks
In short: as §1

ABUTH [11] = assay: Herbicidal post-emergence action (Table B1); format: in vivo, Abutilon theophrasti; settings: application rate 1280 g/ha; treated at one-leaf stage; rated visually after about 3 weeks vs untreated controls (100% = plants have died, 0% = like control plants)
In short: (§2)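 Visual rating against untreated plants (0% = as control, 100% = dead) made roughly 3 weeks after application. Weed species were grown in sandy loam pots under greenhouse conditions and sprayed at the one-leaf stage, 2–3 weeks post-sowing.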

ALOMY [12] = assay: Herbicidal post-emergence action (Table B2); format: in vivo, Alopecurus myosuroides; settings: application rate 320 g/ha; rated visually after about 3 weeks
Procedure: (§3) Seeds of mono- and dicotyledonous weed plants were placed in plastic pots in sandy loam soil (doubly sown with in each case one species of mono- or dicotyledonous weed plants per pot), covered with soil and cultivated in a greenhouse under controlled growth conditions. 2 to 3 weeks after sowing, the test plants were treated at the one-leaf stage. […] After the test plants had been kept in the greenhouse under optimum growth conditions for about 3 weeks, the activity of the preparations was rated visually in comparison to untreated controls. For example, 100% activity = the plants have died, 0% activity = like control plants.

ECHCG [13] = assay: Herbicidal post-emergence action (Table B3); format: in vivo, Echinochloa crus-galli; settings: application rate 320 g/ha; rated visually after about 3 weeks
In short: as §2

LOLRI [14] = assay: Herbicidal post-emergence action (Table B5); format: in vivo, Lolium rigidum; settings: application rate 1280 g/ha; rated visually after about 3 weeks
Procedure: as §3

MATIN [15] = assay: Herbicidal post-emergence action (Table B6); format: in vivo, Matricaria inodora; settings: application rate 1280 g/ha; rated visually after about 3 weeks
In short: as §2

POAAN [16] = assay: Herbicidal post-emergence action (Table B7); format: in vivo, Poa annua; settings: application rate 320 g/ha
In short: as §2

SETVI [17] = assay: Herbicidal post-emergence action (Table B8); format: in vivo, Setaria viridis; settings: application rate 1280 g/ha
In short: as §2

STEME [18] = assay: Herbicidal post-emergence action (Table B9); format: in vivo, Stellaria media; settings: application rate 1280 g/ha
Procedure: as §3

VERPE [19] = assay: Herbicidal post-emergence action (Table B10); format: in vivo, Veronica persica; settings: application rate 320 g/ha
In short: as §2

AMARE [20] = assay: Herbicidal post-emergence action (Table B11); format: in vivo, Amaranthus retroflexus; settings: application rate 1280 g/ha
In short: as §2

ABUTH [21] = assay: Herbicidal pre-emergence action, section C (Table C1); format: in vivo, Abutilon theophrasti; settings: application rate 320 g/ha; visual grading after ca. 3 weeks
ALOMY [22] = assay: Herbicidal pre-emergence action, section C (Table C2); format: in vivo, Alopecurus myosuroides; settings: application rate 320 g/ha; visual grading after ca. 3 weeks
ECHCG [23] = assay: Herbicidal pre-emergence action, section C (Table C6); format: in vivo, Echinochloa crus-galli; settings: application rate 80 g/ha; visual grading after ca. 3 weeks
Text: (§5) Seeds of mono- and dicotyledonous weed plants and crop plants were sown, in plastic or organic planting pots, in sandy loam and covered with soil. The compounds according to the invention, formulated in the form of wettable powders (WP) or as emulsifiable concentrates (EC), were applied to the surface of the covering soil as aqueous suspension or emulsion, with the addition of 0.5% of an additive, at an application rate of 600 1 of water/ha (converted). Following treatment, the pots were placed in a greenhouse and kept under optimum growth conditions for the test plants.

LOLRI [24] = assay: Herbicidal pre-emergence action, section C (Table C7); format: in vivo, Lolium rigidum; settings: application rate 80 g/ha; visual grading after ca. 3 weeks
MATIN [25] = assay: Herbicidal pre-emergence action, section C (Table C8); format: in vivo, Matricaria inodora; settings: application rate 320 g/ha; visual grading after ca. 3 weeks
Text: as §5

POLCO = assay: Herbicidal pre-emergence action, section C (Table C9); format: in vivo, Polygonum convolvulus; settings: application rate 320 g/ha; visual grading after ca. 3 weeks
Text: as §5

SETVI [26] = assay: Herbicidal pre-emergence action, section C (Table C10); format: in vivo, Setaria viridis; settings: application rate 80 g/ha; visual grading after ca. 3 weeks
VERPE [27] = assay: Herbicidal pre-emergence action, section C (Table C11); format: in vivo, Veronica persica; settings: application rate 320 g/ha; visual grading after ca. 3 weeks
VIOTR [28] = assay: Herbicidal pre-emergence action, section C (Table C12); format: in vivo, Viola tricolor; settings: application rate 80 g/ha; visual grading after ca. 3 weeks
TRZAS [29] = assay: Pre-emergence effects on crop plants (Table D2); format: in vivo, Triticum aestivum; settings: crop plant; application rate 80 g/ha; visual grading after ca. 3 weeks
BRSNW [30] = assay: Pre-emergence effects on crop plants (Table D5); format: in vivo, Brassica napus; settings: crop plant; application rate 80 g/ha; visual grading after ca. 3 weeks
ALOMY [31] = assay: Herbicidal post-emergence action, section E (Table E2); format: in vivo, Alopecurus myosuroides; settings: application rate 320 g/ha; assessed visually after ca. 3 weeks
Text: (§4) 2 to 3 weeks after sowing, the test plants were sprayed in the single-leaf stage.

ECHCG [32] = assay: Herbicidal post-emergence action, section E (Table E5); format: in vivo, Echinochloa crus-galli; settings: application rate 80 g/ha; assessed visually after ca. 3 weeks
Text: as §4

SETVI [33] = assay: Herbicidal post-emergence action, section E (Table E8); format: in vivo, Setaria viridis; settings: application rate 320 g/ha; assessed visually after ca. 3 weeks
Text: as §4

VERPE [34] = assay: Herbicidal post-emergence action, section E (Table E9); format: in vivo, Veronica persica; settings: application rate 320 g/ha; assessed visually after ca. 3 weeks
Text: as §4

VIOTR [35] = assay: Herbicidal post-emergence action, section E (Table E10); format: in vivo, Viola tricolor; settings: application rate 320 g/ha; assessed visually after ca. 3 weeks
Text: as §4

ZEAMX = assay: Post-emergence effects on crop plants (Table F1); format: in vivo, Zea mays; settings: application rate 80 g/ha, crop plant ZEAMX
Text: as §4

TRZAS [36] = assay: Post-emergence effects on crop plants (Table F2); format: in vivo, Triticum aestivum; settings: application rate 80 g/ha, crop plant TRZAS
Text: as §4

ORYZA [37] = assay: Post-emergence effects on crop plants (Table F3); format: in vivo, Oryza sativa; settings: application rate 320 g/ha, crop plant ORYZA
Text: as §4

GLXMA = assay: Post-emergence effects on crop plants (Table F4); format: in vivo, Glycine max; settings: application rate 80 g/ha, crop plant GLXMA
Text: as §4

BRSNW [38] = assay: Post-emergence effects on crop plants (Table F5); format: in vivo, Brassica napus; settings: application rate 80 g/ha, crop plant BRSNW
Text: as §4

ORYZA [39] = assay: Pre-emergence effects on crop plants (Table D3); settings: crop plant; application rate 80 g/ha; visual grading after ca. 3 weeks

O=C1N(Cc2ccccc2F)CCCC12CCCN(Cc1ccccc1F)C2=O (racemic) [I-005]
80%: pre-emergence activity against ABUTH (ABUTH [21]) | pre-emergence activity against LOLRI (LOLRI [24]) | pre-emergence activity against POLCO (POLCO) | pre-emergence activity against VERPE (VERPE [27]) | pre-emergence activity against VIOTR (VIOTR [28]) | post-emergence activity against ECHCG (ECHCG [32]) | post-emergence activity against VERPE (VERPE [34]) | post-emergence activity against VIOTR (VIOTR [35])
90%: pre-emergence activity against ABUTH (ABUTH [1]) | pre-emergence activity against STEME (STEME [6]) | pre-emergence activity against AMARE (AMARE [8]) | pre-emergence activity against ALOMY (ALOMY [9]) | pre-emergence activity against KCHSC (KCHSC) | post-emergence activity against ABUTH (ABUTH [11]) | post-emergence activity against ALOMY (ALOMY [12]) | post-emergence activity against LOLRI (LOLRI [14]) | post-emergence activity against STEME (STEME [18]) | post-emergence activity against VERPE (VERPE [19]) | pre-emergence activity against MATIN (MATIN [25]) | post-emergence activity against ALOMY (ALOMY [31]) | post-emergence activity against SETVI (SETVI [33])
100%: pre-emergence activity against ECHCG (ECHCG [2]) | pre-emergence activity against LOLRI (LOLRI [3]) | pre-emergence activity against MATIN (MATIN [4]) | pre-emergence activity against SETVI (SETVI [5]) | pre-emergence activity against POAAN (POAAN [7]) | pre-emergence activity against VERPE (VERPE [10]) | post-emergence activity against ECHCG (ECHCG [13]) | post-emergence activity against MATIN (MATIN [15]) | post-emergence activity against POAAN (POAAN [16]) | post-emergence activity against SETVI (SETVI [17]) | post-emergence activity against AMARE (AMARE [20]) | pre-emergence activity against ALOMY (ALOMY [22]) | pre-emergence activity against ECHCG (ECHCG [23]) | pre-emergence activity against SETVI (SETVI [26])
0%: pre-emergence activity against BRSNW (BRSNW [30]) | post-emergence activity against ORYZA (ORYZA [37])
20%: pre-emergence activity against TRZAS (TRZAS [29]) | post-emergence activity against ZEAMX (ZEAMX) | post-emergence activity against TRZAS (TRZAS [36]) | post-emergence activity against GLXMA (GLXMA) | post-emergence activity against BRSNW (BRSNW [38]) | pre-emergence activity against ORYZA (ORYZA [39])
